Assay results reported in ChEMBL document CHEMBL1687752, “Impact of antifungal prophylaxis on colonization and azole susceptibility of Candida species” (2009).
In brackets after ≈: the same amount, converted by molar mass.

Key:
Format in all cases: functional
Nakaseomyces glabratus [1] = assay: Antifungal activity against Candida glabrata isolated from neutropenic subjects with AML or MDS receiving fluconazole by broth microdilution method
Nakaseomyces glabratus [2] = assay: Antifungal activity against 14 days cultured Candida glabrata isolated from HSCT recipient with acute or chronic GVHD mouth after 17 days of prophylaxis by broth microdilution method
Nakaseomyces glabratus [3] = assay: Antifungal activity against -2 days cultured Candida glabrata isolated from HSCT recipient with acute or chronic GVHD mouth receiving antifungal therapy for 172 days after 114 days of prophylaxis by broth microdilution method
Candida albicans [4] = assay: Antifungal activity against Candida albicans isolated from neutropenic subjects with AML or MDS prior to initiation of fluconazole therapy assessed as maximum MIC by broth microdilution method
Nakaseomyces glabratus [5] = assay: Antifungal activity against 176 days cultured Candida glabrata isolated from HSCT recipient with acute or chronic GVHD mouth receiving antifungal therapy for 172 days after 114 days of prophylaxis by broth microdilution method
Candida albicans [6] = assay: Antifungal activity against Candida albicans isolated from neutropenic subjects with AML or MDS receiving fluconazole by broth microdilution method
Nakaseomyces glabratus [7] = assay: Antifungal activity against Candida glabrata isolated from neutropenic subject 1187 with AML or MDS stool receiving antifungal drug after 22 days prophylaxis by broth microdilution method; settings: 528 h
Candida albicans [8] = assay: Antifungal activity against Candida albicans isolated from HSCT recipient 462 with acute or chronic GVHD mouth receiving antifungal drug after 112 days prophylaxis by broth microdilution method
Saccharomyces cerevisiae = assay: Antifungal activity against Saccharomyces cerevisiae isolated from HSCT recipient 513 with acute or chronic GVHD mouth after 112 days prophylaxis by broth microdilution method
Nakaseomyces glabratus [9] = assay: Antifungal activity against 43 days cultured Candida glabrata isolated from HSCT recipient with acute or chronic GVHD mouth receiving antifungal therapy for 172 days after 114 days of prophylaxis by broth microdilution method
Nakaseomyces glabratus [10] = assay: Antifungal activity against 59 days cultured Candida glabrata isolated from HSCT recipient with acute or chronic GVHD mouth receiving antifungal therapy for 75 days after 33 days of prophylaxis by broth microdilution method
Candida albicans [11] = assay: Antifungal activity against Candida albicans isolated from HSCT recipients with acute or chronic GVHD receiving posaconazole assessed as maximum MIC by broth microdilution method
Nakaseomyces glabratus [12] = assay: Antifungal activity against 60 days cultured Candida glabrata isolated from HSCT recipient with acute or chronic GVHD mouth receiving antifungal therapy for 75 days after 33 days of prophylaxis by broth microdilution method
Nakaseomyces glabratus [13] = assay: Antifungal activity against 15 days cultured Candida glabrata isolated from HSCT recipient with acute or chronic GVHD mouth receiving antifungal therapy for 168 days after 113 days of prophylaxis by broth microdilution method
Pichia kudriavzevii [14] = assay: Antifungal activity against 14 days cultured Candida krusei isolated from neutropenic subject with AML or MDS pharynx after 12 days of prophylaxis by broth microdilution method
Candida albicans [15] = assay: Antifungal activity against Candida albicans isolated from HSCT recipient 262 with acute or chronic GVHD mouth after 115 days prophylaxis by broth microdilution method
Nakaseomyces glabratus [16] = assay: Antifungal activity against 1 day cultured Candida glabrata isolated from HSCT recipient with acute or chronic GVHD mouth receiving antifungal therapy for 143 days after 116 days of prophylaxis by broth microdilution method
Nakaseomyces glabratus [17] = assay: Antifungal activity against 3 days cultured Candida glabrata isolated from neutropenic subject with AML or MDS stool receiving antifungal therapy for 25 days after 3 days of prophylaxis by broth microdilution method
Pichia kudriavzevii [18] = assay: Antifungal activity against 16 days cultured Candida krusei isolated from neutropenic subject with AML or MDS stool receiving antifungal therapy for 19 days after 6 days of prophylaxis by broth microdilution method
Nakaseomyces glabratus [19] = assay: Antifungal activity against Candida glabrata isolated from HSCT recipient 497 with acute or chronic GVHD mouth receiving antifungal drug after 114 days prophylaxis by broth microdilution method
Nakaseomyces glabratus [20] = assay: Antifungal activity against Candida glabrata isolated from HSCT recipients with acute or chronic GVHD receiving fluconazole by broth microdilution method
Nakaseomyces glabratus [21] = assay: Antifungal activity against 176 days cultured Candida glabrata isolated from HSCT recipient with acute or chronic GVHD mouth receiving antifungal therapy for 168 days after 113 days of prophylaxis by broth microdilution method
Candida albicans [22] = assay: Antifungal activity against Candida albicans isolated from HSCT recipient 042 with acute or chronic GVHD mouth receiving antifungal drug after 112 days prophylaxis by broth microdilution method
Candida tropicalis [23] = assay: Antifungal activity against 9 days cultured Candida tropicalis isolated from neutropenic subject with AML or MDS stool receiving antifungal therapy for 45 days after 24 days of prophylaxis by broth microdilution method
Pichia kudriavzevii [24] = assay: Antifungal activity against Candida krusei isolated from neutropenic subjects with AML or MDS prior to initiation of fluconazole therapy assessed as maximum MIC by broth microdilution method
Nakaseomyces glabratus [25] = assay: Antifungal activity against Candida glabrata isolated from neutropenic subjects with AML or MDS prior to initiation of fluconazole therapy by broth microdilution method
Nakaseomyces glabratus [26] = assay: Antifungal activity against 12 days cultured Candida glabrata isolated from HSCT recipient with acute or chronic GVHD mouth receiving antifungal therapy for 143 days after 116 days of prophylaxis by broth microdilution method
Nakaseomyces glabratus [27] = assay: Antifungal activity against Candida glabrata isolated from HSCT recipients with acute or chronic GVHD prior to initiation of fluconazole therapy assessed as maximum MIC by broth microdilution method
Candida albicans [28] = assay: Antifungal activity against Candida albicans isolated from neutropenic subjects with AML or MDS prior to initiation of posaconazole therapy by broth microdilution method
Nakaseomyces glabratus [29] = assay: Antifungal activity against Candida glabrata isolated from neutropenic subject 1497 with AML or MDS pharynx receiving antifungal drug after 61 days prophylaxis by broth microdilution method
Nakaseomyces glabratus [30] = assay: Antifungal activity against 25 days cultured Candida glabrata isolated from invasive fungal infected subject blood receiving antifungal therapy for 25 days after 3 days of prophylaxis by broth microdilution method
Nakaseomyces glabratus [31] = assay: Antifungal activity against 19 days cultured Candida glabrata isolated from HSCT recipient with acute or chronic GVHD mouth after 17 days of prophylaxis by broth microdilution method
Candida albicans [32] = assay: Antifungal activity against Candida albicans isolated from HSCT recipients with acute or chronic GVHD prior to initiation of fluconazole therapy assessed as maximum MIC by broth microdilution method
Pichia kudriavzevii [33] = assay: Antifungal activity against Candida krusei isolated from neutropenic subjects with AML or MDS prior to initiation of posaconazole therapy assessed as maximum MIC by broth microdilution method
Nakaseomyces glabratus [34] = assay: Antifungal activity against Candida glabrata isolated from HSCT recipient 002 with acute or chronic GVHD mouth after 116 days prophylaxis by broth microdilution method
Nakaseomyces glabratus [35] = assay: Antifungal activity against Candida glabrata isolated from HSCT recipients with acute or chronic GVHD receiving posaconazole assessed as maximum MIC by broth microdilution method
Pichia kudriavzevii [36] = assay: Antifungal activity against Candida krusei isolated from HSCT recipients with acute or chronic GVHD prior to initiation of fluconazole therapy assessed as maximum MIC by broth microdilution method
Candida tropicalis [37] = assay: Antifungal activity against 2 days cultured Candida tropicalis isolated from neutropenic subject with AML or MDS pharynx receiving antifungal therapy for 45 days after 24 days of prophylaxis by broth microdilution method

With `CC[C@@H]([C@H](C)O)n1ncn(-c2ccc(N3CCN(c4ccc(OC[C@@H]5CO[C@@](Cn6cncn6)(c6ccc(F)cc6F)C5)cc4)CC3)cc2)c1=O` [POSACONAZOLE] the MIC50 (Nakaseomyces glabratus [1]) was 0.5 µg/mL (≈ 0.713 µM), the MIC90 (Nakaseomyces glabratus [1]) was 1 µg/mL (≈ 1.43 µM) and the MIC (Nakaseomyces glabratus [2]) was 8 µg/mL (≈ 11.4 µM). For the same molecule, the MIC (Nakaseomyces glabratus [3]) was 0.5 µg/mL (≈ 0.713 µM), the MIC (Candida albicans [4]) was 0.06 µg/mL and the MIC (Nakaseomyces glabratus [5]) was 2 µg/mL (≈ 2.85 µM). It also gave an MIC50 (Candida albicans [6]) of 0.015 µg/mL (≈ 0.0214 µM), an MIC90 (Candida albicans [6]) of 0.015 µg/mL (≈ 0.0214 µM) and an MIC (Nakaseomyces glabratus [7]) of 4 µg/mL (≈ 5.71 µM). For the same molecule, the MIC (Candida albicans [8]) was 0.06 µg/mL (≈ 0.0856 µM), the MIC (Saccharomyces cerevisiae) was 1 µg/mL (≈ 1.43 µM) and the MIC (Nakaseomyces glabratus [9]) was 1 µg/mL (≈ 1.43 µM). For the same molecule, the MIC (Nakaseomyces glabratus [10]) was 1 µg/mL (≈ 1.43 µM), the MIC (Candida albicans [11]) was 0.25 µg/mL and the MIC (Nakaseomyces glabratus [12]) was 4 µg/mL (≈ 5.71 µM). For the same molecule, the MIC (Nakaseomyces glabratus [13]) was 2 µg/mL (≈ 2.85 µM), the MIC (Pichia kudriavzevii [14]) was 0.125 µg/mL (≈ 0.178 µM) and the MIC (Candida albicans [15]) was < 0.015 µg/mL. For the same molecule, the MIC (Nakaseomyces glabratus [16]) was 0.5 µg/mL (≈ 0.713 µM), the MIC (Nakaseomyces glabratus [17]) was 0.5 µg/mL (≈ 0.713 µM) and the MIC (Pichia kudriavzevii [18]) was 0.25 µg/mL (≈ 0.357 µM). For the same molecule, the MIC (Nakaseomyces glabratus [19]) was 2 µg/mL (≈ 2.85 µM), the MIC50 (Nakaseomyces glabratus [20]) was 2 µg/mL (≈ 2.85 µM) and the MIC90 (Nakaseomyces glabratus [20]) was 8 µg/mL (≈ 11.4 µM). The MIC (Nakaseomyces glabratus [21]) was 4 µg/mL (≈ 5.71 µM), the MIC (Candida albicans [22]) was < 0.015 µg/mL and the MIC (Candida tropicalis [23]) was < 0.015 µg/mL. The MIC (Pichia kudriavzevii [24]) was 0.25 µg/mL, the MIC50 (Nakaseomyces glabratus [25]) was 0.5 µg/mL (≈ 0.713 µM) and the MIC90 (Nakaseomyces glabratus [25]) was 2 µg/mL (≈ 2.85 µM). The MIC (Nakaseomyces glabratus [26]) was 2 µg/mL (≈ 2.85 µM), the MIC (Nakaseomyces glabratus [27]) was 16 µg/mL and the MIC50 (Candida albicans [28]) was 0.015 µg/mL (≈ 0.0214 µM). For the same molecule, the MIC90 (Candida albicans [28]) was 0.015 µg/mL (≈ 0.0214 µM), the MIC (Nakaseomyces glabratus [29]) was 4 µg/mL (≈ 5.71 µM) and the MIC (Nakaseomyces glabratus [30]) was 0.5 µg/mL (≈ 0.713 µM). The MIC (Nakaseomyces glabratus [31]) was 8 µg/mL (≈ 11.4 µM), the MIC (Candida albicans [32]) was 0.06 µg/mL and the MIC (Pichia kudriavzevii [33]) was 0.25 µg/mL. The MIC (Nakaseomyces glabratus [34]) was 0.5 µg/mL (≈ 0.713 µM), the MIC (Nakaseomyces glabratus [35]) was 8 µg/mL and the MIC (Pichia kudriavzevii [36]) was 0.5 µg/mL. For the same molecule, the MIC (Candida tropicalis [37]) was < 0.015 µg/mL.

With `CCC(C)n1ncn(-c2ccc(N3CCN(c4ccc(OCC5COC(Cn6cncn6)(c6ccc(Cl)cc6Cl)O5)cc4)CC3)cc2)c1=O` (stereo unspecified) [ITRACONAZOLE] the MIC50 (Nakaseomyces glabratus [1]) was 0.5 µg/mL (≈ 0.709 µM), the MIC90 (Nakaseomyces glabratus [1]) was 2 µg/mL (≈ 2.83 µM) and the MIC (Nakaseomyces glabratus [2]) was > 8 µg/mL. The MIC (Nakaseomyces glabratus [3]) was 1 µg/mL (≈ 1.42 µM), the MIC (Candida albicans [4]) was 0.125 µg/mL and the MIC (Nakaseomyces glabratus [5]) was 8 µg/mL (≈ 11.3 µM). The MIC50 (Candida albicans [6]) was 0.015 µg/mL (≈ 0.0213 µM), the MIC90 (Candida albicans [6]) was 0.015 µg/mL (≈ 0.0213 µM) and the MIC (Nakaseomyces glabratus [7]) was 4 µg/mL (≈ 5.67 µM). For the same molecule, the MIC (Candida albicans [8]) was 0.03 µg/mL (≈ 0.0425 µM), the MIC (Saccharomyces cerevisiae) was 0.5 µg/mL (≈ 0.709 µM) and the MIC (Nakaseomyces glabratus [9]) was 2 µg/mL (≈ 2.83 µM). It also gave an MIC (Nakaseomyces glabratus [10]) of 1 µg/mL (≈ 1.42 µM), an MIC (Candida albicans [11]) of 0.25 µg/mL and an MIC (Nakaseomyces glabratus [12]) of 4 µg/mL (≈ 5.67 µM). For the same molecule, the MIC (Nakaseomyces glabratus [13]) was 4 µg/mL (≈ 5.67 µM), the MIC (Pichia kudriavzevii [14]) was 0.25 µg/mL (≈ 0.354 µM) and the MIC (Candida albicans [15]) was < 0.015 µg/mL. For the same molecule, the MIC (Nakaseomyces glabratus [16]) was 1 µg/mL (≈ 1.42 µM), the MIC (Nakaseomyces glabratus [17]) was 1 µg/mL (≈ 1.42 µM) and the MIC (Pichia kudriavzevii [18]) was 0.25 µg/mL (≈ 0.354 µM). It also gave an MIC (Nakaseomyces glabratus [19]) of 8 µg/mL (≈ 11.3 µM), an MIC50 (Nakaseomyces glabratus [20]) of 1 µg/mL (≈ 1.42 µM) and an MIC90 (Nakaseomyces glabratus [20]) of 16 µg/mL (≈ 22.7 µM). It also gave an MIC (Nakaseomyces glabratus [21]) of 2 µg/mL (≈ 2.83 µM), an MIC (Candida albicans [22]) of 0.06 µg/mL (≈ 0.085 µM) and an MIC (Candida tropicalis [23]) of 0.03 µg/mL (≈ 0.0425 µM). For the same molecule, the MIC (Pichia kudriavzevii [24]) was 0.5 µg/mL, the MIC50 (Nakaseomyces glabratus [25]) was 0.5 µg/mL (≈ 0.709 µM) and the MIC90 (Nakaseomyces glabratus [25]) was 2 µg/mL (≈ 2.83 µM). The MIC (Nakaseomyces glabratus [26]) was 4 µg/mL (≈ 5.67 µM), the MIC (Nakaseomyces glabratus [27]) was 32 µg/mL and the MIC50 (Candida albicans [28]) was 0.015 µg/mL (≈ 0.0213 µM). The MIC90 (Candida albicans [28]) was 0.03 µg/mL (≈ 0.0425 µM), the MIC (Nakaseomyces glabratus [29]) was 8 µg/mL (≈ 11.3 µM) and the MIC (Nakaseomyces glabratus [30]) was 2 µg/mL (≈ 2.83 µM). The MIC (Nakaseomyces glabratus [31]) was > 8 µg/mL, the MIC (Candida albicans [32]) was 0.06 µg/mL and the MIC (Pichia kudriavzevii [33]) was 0.5 µg/mL. It also gave an MIC (Nakaseomyces glabratus [34]) of 1 µg/mL (≈ 1.42 µM), an MIC (Nakaseomyces glabratus [35]) of 8 µg/mL and an MIC (Pichia kudriavzevii [36]) of 1 µg/mL. For the same molecule, the MIC (Candida tropicalis [37]) was 0.03 µg/mL (≈ 0.0425 µM).
